# Measured values published in publication doi:10.1101/2023.11.24.568596v1 (biorxiv, 2023).
# Legend:
# Conditions in all cases: binder
# MAP2K7 = molecular target: T1, MAP2K7 (Homo sapiens, UniProt O14733)
# T1 sequence (O14733 1-419): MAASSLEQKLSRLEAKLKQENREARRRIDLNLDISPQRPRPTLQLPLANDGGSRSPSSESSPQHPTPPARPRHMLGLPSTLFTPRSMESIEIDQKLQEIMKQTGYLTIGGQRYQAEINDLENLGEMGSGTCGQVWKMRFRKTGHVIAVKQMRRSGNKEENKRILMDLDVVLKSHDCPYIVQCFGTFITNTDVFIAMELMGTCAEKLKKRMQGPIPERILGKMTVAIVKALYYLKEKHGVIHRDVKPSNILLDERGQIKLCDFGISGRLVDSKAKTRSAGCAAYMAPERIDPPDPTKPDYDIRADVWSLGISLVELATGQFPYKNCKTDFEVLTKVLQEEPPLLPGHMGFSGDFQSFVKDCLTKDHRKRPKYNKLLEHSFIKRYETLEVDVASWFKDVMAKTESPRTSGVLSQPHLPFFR
# CaMK4 = molecular target: T2, CaMK4 (Homo sapiens, UniProt Q16566)
# T2 sequence (Q16566 1-473): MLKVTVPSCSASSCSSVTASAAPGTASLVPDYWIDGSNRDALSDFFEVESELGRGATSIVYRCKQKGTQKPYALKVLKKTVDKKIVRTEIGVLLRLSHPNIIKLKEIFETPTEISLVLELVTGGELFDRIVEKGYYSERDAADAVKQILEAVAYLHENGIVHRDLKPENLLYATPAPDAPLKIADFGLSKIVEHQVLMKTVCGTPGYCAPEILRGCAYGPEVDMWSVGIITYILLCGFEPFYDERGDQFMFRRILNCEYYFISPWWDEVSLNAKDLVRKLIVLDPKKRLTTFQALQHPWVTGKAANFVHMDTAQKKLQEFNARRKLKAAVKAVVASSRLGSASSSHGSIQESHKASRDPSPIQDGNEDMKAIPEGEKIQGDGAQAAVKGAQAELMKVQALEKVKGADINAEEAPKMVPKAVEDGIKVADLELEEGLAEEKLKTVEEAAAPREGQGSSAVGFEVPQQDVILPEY
# EphB3 = molecular target: T3, EphB3 (Homo sapiens, UniProt P54753)
# T3 sequence (P54753 1-998): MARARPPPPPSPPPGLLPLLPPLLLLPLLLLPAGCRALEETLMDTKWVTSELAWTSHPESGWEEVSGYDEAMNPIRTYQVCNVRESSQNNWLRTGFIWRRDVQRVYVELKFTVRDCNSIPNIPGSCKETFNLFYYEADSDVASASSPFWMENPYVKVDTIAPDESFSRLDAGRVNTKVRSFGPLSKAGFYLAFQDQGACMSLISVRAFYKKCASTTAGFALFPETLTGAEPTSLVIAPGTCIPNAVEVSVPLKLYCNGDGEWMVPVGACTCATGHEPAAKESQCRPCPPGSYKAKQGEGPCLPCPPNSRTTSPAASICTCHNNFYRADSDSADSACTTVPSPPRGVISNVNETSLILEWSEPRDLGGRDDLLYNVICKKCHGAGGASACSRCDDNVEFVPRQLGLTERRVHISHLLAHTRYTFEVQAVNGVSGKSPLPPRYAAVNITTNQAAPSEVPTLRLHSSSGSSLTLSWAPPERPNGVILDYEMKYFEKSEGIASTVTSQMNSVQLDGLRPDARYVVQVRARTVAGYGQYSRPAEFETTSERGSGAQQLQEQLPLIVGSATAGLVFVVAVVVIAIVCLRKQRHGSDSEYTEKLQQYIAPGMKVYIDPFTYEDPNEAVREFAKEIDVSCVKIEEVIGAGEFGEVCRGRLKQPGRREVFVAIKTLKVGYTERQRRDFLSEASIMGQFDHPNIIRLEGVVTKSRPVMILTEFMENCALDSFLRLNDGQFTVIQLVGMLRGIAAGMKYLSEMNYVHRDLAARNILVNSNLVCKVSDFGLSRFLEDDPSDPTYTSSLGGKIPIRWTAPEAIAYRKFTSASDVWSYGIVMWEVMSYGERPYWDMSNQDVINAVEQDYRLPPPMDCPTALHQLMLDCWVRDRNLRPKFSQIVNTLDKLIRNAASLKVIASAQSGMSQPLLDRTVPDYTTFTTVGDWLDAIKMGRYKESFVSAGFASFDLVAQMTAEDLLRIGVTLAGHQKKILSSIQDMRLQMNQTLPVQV
# PIM3 = PIM3 (Homo sapiens, UniProt Q86V86)
# EphA4 = EphA4 (Homo sapiens, UniProt P54764)
# EphA4, sequence (P54764 whole entry): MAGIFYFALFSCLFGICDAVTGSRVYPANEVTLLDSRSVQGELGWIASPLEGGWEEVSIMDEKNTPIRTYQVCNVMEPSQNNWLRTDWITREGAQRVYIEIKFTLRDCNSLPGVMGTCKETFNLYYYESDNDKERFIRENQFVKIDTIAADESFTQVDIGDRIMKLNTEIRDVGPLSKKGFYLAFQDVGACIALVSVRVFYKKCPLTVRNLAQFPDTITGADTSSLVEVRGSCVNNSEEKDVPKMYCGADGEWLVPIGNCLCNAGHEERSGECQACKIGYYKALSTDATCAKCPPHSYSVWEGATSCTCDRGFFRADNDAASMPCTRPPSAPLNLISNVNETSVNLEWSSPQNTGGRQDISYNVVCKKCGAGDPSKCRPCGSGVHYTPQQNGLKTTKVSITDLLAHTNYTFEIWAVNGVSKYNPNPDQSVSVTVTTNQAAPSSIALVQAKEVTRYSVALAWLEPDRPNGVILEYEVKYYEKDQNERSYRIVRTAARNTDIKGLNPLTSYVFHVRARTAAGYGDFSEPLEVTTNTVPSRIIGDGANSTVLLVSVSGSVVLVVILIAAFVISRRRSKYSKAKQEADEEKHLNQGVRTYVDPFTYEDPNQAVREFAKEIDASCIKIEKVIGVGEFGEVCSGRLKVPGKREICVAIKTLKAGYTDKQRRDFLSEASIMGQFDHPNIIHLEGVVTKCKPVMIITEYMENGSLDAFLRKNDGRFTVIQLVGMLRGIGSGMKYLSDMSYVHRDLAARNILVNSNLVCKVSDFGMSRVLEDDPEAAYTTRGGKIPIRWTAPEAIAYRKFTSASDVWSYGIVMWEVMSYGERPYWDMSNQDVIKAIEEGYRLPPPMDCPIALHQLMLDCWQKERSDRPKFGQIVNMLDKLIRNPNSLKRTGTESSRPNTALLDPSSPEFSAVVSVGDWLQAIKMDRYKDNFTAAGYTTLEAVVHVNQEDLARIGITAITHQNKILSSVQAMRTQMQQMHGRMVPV
# LOK = LOK (Homo sapiens, UniProt O94804)
# LOK, sequence (O94804 whole entry): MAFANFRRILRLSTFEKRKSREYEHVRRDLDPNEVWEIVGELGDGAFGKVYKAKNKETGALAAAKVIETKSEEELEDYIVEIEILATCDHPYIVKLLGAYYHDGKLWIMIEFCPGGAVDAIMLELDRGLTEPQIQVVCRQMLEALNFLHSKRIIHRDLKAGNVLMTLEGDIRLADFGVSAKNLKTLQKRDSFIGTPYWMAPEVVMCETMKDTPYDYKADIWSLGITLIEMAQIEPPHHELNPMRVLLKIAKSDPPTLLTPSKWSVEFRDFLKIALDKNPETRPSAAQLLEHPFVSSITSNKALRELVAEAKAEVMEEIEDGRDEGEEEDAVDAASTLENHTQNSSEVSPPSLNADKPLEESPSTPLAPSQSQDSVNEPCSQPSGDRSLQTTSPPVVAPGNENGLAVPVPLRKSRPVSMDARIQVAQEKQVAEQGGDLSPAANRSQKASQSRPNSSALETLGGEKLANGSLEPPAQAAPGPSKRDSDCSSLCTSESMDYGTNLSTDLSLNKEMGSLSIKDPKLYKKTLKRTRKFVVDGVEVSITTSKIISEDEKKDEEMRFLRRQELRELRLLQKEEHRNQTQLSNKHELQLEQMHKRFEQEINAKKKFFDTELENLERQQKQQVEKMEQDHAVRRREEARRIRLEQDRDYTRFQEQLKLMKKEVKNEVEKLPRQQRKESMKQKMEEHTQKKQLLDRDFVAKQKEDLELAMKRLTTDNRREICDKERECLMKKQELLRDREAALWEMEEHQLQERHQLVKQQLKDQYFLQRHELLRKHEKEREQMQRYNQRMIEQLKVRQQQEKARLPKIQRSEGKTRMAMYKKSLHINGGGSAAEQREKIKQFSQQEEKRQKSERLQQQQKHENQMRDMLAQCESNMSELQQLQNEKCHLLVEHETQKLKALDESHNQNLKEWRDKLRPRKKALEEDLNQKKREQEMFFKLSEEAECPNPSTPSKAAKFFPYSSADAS
# GPRK5 = GPRK5 (Homo sapiens, UniProt P34947)
# GPRK5, sequence (P34947 whole entry): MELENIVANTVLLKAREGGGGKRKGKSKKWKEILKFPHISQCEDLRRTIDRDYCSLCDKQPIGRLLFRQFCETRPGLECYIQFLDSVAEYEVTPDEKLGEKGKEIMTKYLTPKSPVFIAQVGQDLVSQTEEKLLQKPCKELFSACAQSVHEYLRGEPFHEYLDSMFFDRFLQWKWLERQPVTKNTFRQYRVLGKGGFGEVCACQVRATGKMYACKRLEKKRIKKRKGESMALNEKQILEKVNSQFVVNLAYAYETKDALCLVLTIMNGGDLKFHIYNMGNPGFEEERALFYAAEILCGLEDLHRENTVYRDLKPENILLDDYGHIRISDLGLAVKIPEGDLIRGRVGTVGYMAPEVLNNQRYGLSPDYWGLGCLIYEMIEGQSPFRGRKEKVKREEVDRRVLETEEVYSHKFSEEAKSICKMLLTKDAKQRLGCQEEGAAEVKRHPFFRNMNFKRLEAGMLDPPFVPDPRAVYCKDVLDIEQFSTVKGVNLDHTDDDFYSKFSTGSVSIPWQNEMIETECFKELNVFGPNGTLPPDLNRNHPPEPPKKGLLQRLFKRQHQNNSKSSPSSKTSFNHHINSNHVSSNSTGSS
# MYT1 = molecular target: T4, MYT1 (Homo sapiens, UniProt Q99640)
# T4 sequence (Q99640 1-499): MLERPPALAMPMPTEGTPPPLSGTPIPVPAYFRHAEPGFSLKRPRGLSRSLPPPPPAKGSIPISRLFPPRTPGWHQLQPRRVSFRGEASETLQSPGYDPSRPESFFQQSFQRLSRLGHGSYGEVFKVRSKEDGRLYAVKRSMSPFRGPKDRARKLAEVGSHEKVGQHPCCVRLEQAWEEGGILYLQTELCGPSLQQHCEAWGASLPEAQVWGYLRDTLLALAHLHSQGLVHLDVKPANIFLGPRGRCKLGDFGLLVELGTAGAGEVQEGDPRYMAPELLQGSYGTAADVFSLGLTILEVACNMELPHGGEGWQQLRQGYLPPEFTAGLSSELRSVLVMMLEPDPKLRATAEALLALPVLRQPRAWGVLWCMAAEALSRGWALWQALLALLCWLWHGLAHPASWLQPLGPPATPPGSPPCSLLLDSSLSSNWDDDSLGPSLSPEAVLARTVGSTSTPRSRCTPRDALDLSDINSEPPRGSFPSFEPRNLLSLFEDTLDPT
smiles,measurement,setting,value
"Cc1cccc(-c2ccc(-c3cc4cnc(NCCCN5CCCC5=O)nc4n(CCCCN)c3=O)c(Cl)c2)n1 [compound 27, MR30]",ΔTm MR30 (27),MAP2K7,2.6 °C
same,ΔTm MR30 (27),CaMK4,2.5 °C
same,ΔTm MR30 (27),EphB3,2.3 °C
same,ΔTm MR30 (27),PIM3,-2.7 °C
same,ΔTm MR30 (27),EphA4,2.0 °C
same,ΔTm MR30 (27),LOK,-0.6 °C
same,ΔTm MR30 (27),GPRK5,-1.1 °C
same,ΔTm MR30 (27),MYT1,-2.8 °C
"Cc1cccc(-c2ccc(-c3cc4cnc(Nc5cc(C(F)(F)F)ccc5C)nc4n(CCCCN)c3=O)c(Cl)c2)n1 [compound 28, 8-(4-Aminobutyl)-6-(2-chloro-4-(6-methylpyridin-2-yl)phenyl)-2-((2-methyl-5-(trifluoromethyl)phenyl)amino)pyrido[2,3-d]pyrimidin-7(8H)-one]",ΔTm 28,MAP2K7,2.9 °C
same,ΔTm 28,CaMK4,3.9 °C
same,ΔTm 28,EphB3,4.1 °C
same,ΔTm 28,PIM3,0.5 °C
same,ΔTm 28,EphA4,3.4 °C
same,ΔTm 28,LOK,-0.7 °C
same,ΔTm 28,GPRK5,-0.6 °C
same,ΔTm 28,MYT1,-4.3 °C
"Cc1cccc(-c2ccc(-c3cc4cnc(NCCCN5CCNCC5)nc4n(CCCCN)c3=O)c(Cl)c2)n1 [compound 29, 8-(4-Aminobutyl)-6-(2-chloro-4-(6-methylpyridin-2-yl)phenyl)-2-((3-(piperazin-1-yl)propyl)amino)pyrido[2,3-d]pyrimidin-7(8H)-one]",ΔTm 29,MAP2K7,1.4 °C
same,ΔTm 29,CaMK4,1.5 °C
same,ΔTm 29,EphB3,2.3 °C
same,ΔTm 29,PIM3,0.0 °C
same,ΔTm 29,EphA4,2.1 °C
same,ΔTm 29,LOK,-0.4 °C
same,ΔTm 29,GPRK5,-0.4 °C
same,ΔTm 29,MYT1,-0.9 °C
"Cc1cccc(-c2ccc(-c3cc4cnc(Nc5ccc(CCCO)cc5)nc4n(CCCCN)c3=O)c(Cl)c2)n1 [compound 30, 8-(4-Aminobutyl)-6-(2-chloro-4-(6-methylpyridin-2-yl)phenyl)-2-((4-(3-hydroxypropyl)phenyl)amino)pyrido[2,3-d]pyrimidin-7(8H)-one]",ΔTm 30,MAP2K7,6.2 °C
same,ΔTm 30,CaMK4,5.5 °C
same,ΔTm 30,EphB3,6.9 °C
same,ΔTm 30,PIM3,-0.8 °C
same,ΔTm 30,EphA4,3.5 °C
same,ΔTm 30,LOK,-0.4 °C
same,ΔTm 30,GPRK5,-0.9 °C
same,ΔTm 30,MYT1,-2.8 °C
"Cc1cccc(-c2ccc(-c3cc4cnc(Nc5ccc(O)cc5)nc4n(CCCCN)c3=O)c(Cl)c2)n1 [compound 31, 8-(4-Aminobutyl)-6-(2-chloro-4-(6-methylpyridin-2-yl)phenyl)-2-((4-hydroxyphenyl)amino) pyrido[2,3-d]pyrimidin-7(8H)-one]",ΔTm 31,MAP2K7,8.9 °C
same,ΔTm 31,CaMK4,5.0 °C
same,ΔTm 31,EphB3,5.3 °C
same,ΔTm 31,PIM3,4.5 °C
same,ΔTm 31,EphA4,4.4 °C
same,ΔTm 31,LOK,-0.4 °C
same,ΔTm 31,GPRK5,-0.2 °C
same,ΔTm 31,MYT1,-2.3 °C
"Cc1cccc(-c2ccc(-c3cc4cnc(Nc5ccc(C)c(O)c5)nc4n(CCCCN)c3=O)c(Cl)c2)n1 [compound 32, 8-(4-Aminobutyl)-6-(2-chloro-4-(6-methylpyridin-2-yl)phenyl)-2-((3-hydroxy-4-methylphenyl)amino)pyrido[2,3-d]pyrimidin-7(8H)-one]",ΔTm 32,MAP2K7,7.3 °C
same,ΔTm 32,CaMK4,4.9 °C
same,ΔTm 32,EphB3,8.5 °C
same,ΔTm 32,PIM3,1.5 °C
same,ΔTm 32,EphA4,4.6 °C
same,ΔTm 32,LOK,-0.2 °C
same,ΔTm 32,GPRK5,-0.4 °C
same,ΔTm 32,MYT1,-2.6 °C
